# From publication PMC6372667 (Experimental & Molecular Medicine, 2019)
# Where two headings read alike, the source gives them in different places.
# Assays:
# [1] = biological target: T1, horse serum BChE (Equus caballus, UniProt P81908); assay: In vitro cholinesterase enzyme assay (Ellman), BChE; type: biochemical
# T1 construct: horse serum BChE (EC 3.1.1.8); purchased Sigma-Aldrich Co; host or cells: horse serum
# Source text: BACE1 (human recombinant β-secretase) ([…]) and the BACE1 FRET (fluorescence resonance energy transfer) assay kit Red were purchased from ThermoFisher Scientific (P2985; Waltham, MA, USA). […] For the cell culture experiment, Dulbecco’s modified Eagle’s medium (DMEM), Opti-MEM, fetal bovine serum (FBS), and penicillin/streptomycin were obtained from Capricorn Scientific (Ebsdorfergrund, Germany). β-secretase inhibitor III (β-SI) was purchased from Calbiochem (Darmstadt, Germany). The protease inhibitor mixture (a mixture of AEBSF, pepstatin A, E-64, bestain, leupeptin, and aprotinin) was purchased from Sigma-Aldrich (St. Louis, MO, USA). Enzyme-linked immunosorbent assay (ELISA) kits for Aβ40 and Aβ42 were obtained from IBL (Kunma, Japan). All chemicals and solvents used were reagent grade, purchased from commercial sources, and used as received.
# The inhibitory activities of pterosin derivatives against cholinesterases were measured using the method developed by Ellman et al.[32]. The reaction mixture contained 140 μL of sodium phosphate buffer (pH 8.0), 20 μL of test sample solution (final concentration of the compound 100 μM), and 20 μL of AChE or BChE solution, mixed and incubated for 15 min at room temperature. […] The reactions were initiated following the addition of 10 μL of DTNB and 10 μL of acetyl thiocholine iodide for the AChE assay or butyryl thiocholine chloride for the BChE assay in 96-well microplates, which were incubated for 15 min.
# [2] = biological target: T2, Electric eel AChE (Electrophorus electricus, UniProt O42275); assay: Kinetic analysis of AChE inhibition (Dixon and Lineweaver−Burk plots); type: biochemical; conditions: for Inhibition type AChE: Dixon and Lineweaver−Burk plots
# T2 construct: purchased Sigma-Aldrich Co
# Protocol: The Ki was determined by interpretation of the Dixon plot, with the value of the x-axis intercept taken as −Ki.
# Dixon plots for AChE inhibition by pterosin derivatives. (2S,3R)-Pterosin C (A), (2R,3R)-pterosin C (B), and (2R)-pterosin B (C) were tested in the presence of substrate concentrations of 0.1 mM (●), 0.3 mM (○), and 0.6 mM (▼). Lineweaver-Burk plots for AChE inhibition were generated with inhibitor concentrations of 0 µM (Δ), 4 µM (▼), 20 µM (○), and 100 µM (●) for (2S,3R)-pterosin C (D) and (2R,3R)-pterosin C (E); and 0 µM (Δ), 2 µM (▼), 10 µM (○), and 50 µM (●) for (2R)-pterosin B (F).
# Dixon plots for AChE inhibition by pteroside derivatives. (2R)-pteroside B (A), (2R,3R)-pteroside C (B), and (3S)-pteroside D (C) were tested in the presence of substrate concentrations of 0.1 mM (●), 0.3 mM (○), and 0.6 mM (▼). Lineweaver-Burk plots for AChE inhibition were generated with inhibitor concentrations of 0 µM (Δ), 0.8 µM (▼), 4 µM (○), and 20 µM (●) for (2R)-pteroside B (D), (2R,3R)-pteroside C (E), and (3S)-pteroside D (F).
# [3] = tested on: C6 rat glial cells; assay: MTT cytotoxicity assay, C6; type: cell-based; conditions: 24 h
# Protocol: (§1) Cytotoxicity was assessed using the MTT assay. Briefly, the cells were seeded into a 96-well plate at a density of 1×10^5 cells per well in 100 µL of corresponding media and incubated at 37 °C in an incubator under 5% CO2 tension for 24 h. The culture media were then replaced with 100 µL of fresh serum-free media in the presence of varied concentrations of pterosin derivatives, and cells were incubated for an additional 24 h. The control was treated with an equal amount of DMSO present in the assay for a 5 mM concentration. Then, 100 µL of MTT solution (0.5 mg/mL in Phosphate Buffered Saline (PBS)) was added to each culture. To measure the proportion of surviving cells, the media were replaced with 100 µL of DMSO 2 h after the administration of MTT solution. The absorbance was measured at 570 nm using a spectrophotometric plate reader (Molecular Devices, Sunnyvale, CA, USA).
# [4] = tested on: SH-SY5Y, C6, NIH3T3 and B16F10 cell lines; assay: MTT cytotoxicity assay, all cell lines tested; type: cell-based
# Protocol: as §1
# [5] = tested on: Mouse neuroblastoma N2a cells stably overexpressing the human APP Swedish mutation (APPswe); assay: Aβ40/Aβ42 sandwich ELISA of conditioned media of APPswe neuroblastoma cells; type: cell-based
# Protocol: Mouse neuroblastoma N2a cells stably overexpressing the human APP Swedish mutation (APPswe) were kindly provided by Dr. Takeshi Iwatsubo (The University of Tokyo). […] To analyze the effect of (2R)-pterosin B or (2R,3R)-pteroside C on APP metabolites, APPswe-containing neuroblastoma cells were cultured up to confluency in DMEM that contained 10 mM butyric acid to drive protein expression in the presence of 12, 60, 250, and 500 μM of (2R)-pterosin B or (2R,3R)-pteroside C for 24 h. β-SI (10 µM) was used as a positive control. The negative control included cells cultured in the absence of test compounds. […] Conditioned medium was collected in 0.5 mM phenylmethylsulfonyl fluoride and subjected to ELISA for the 40-residue peptide Aβ (1–40) (Aβ40) or the 42-residue Aβ (1–42) (Aβ42).
# Aβ40 and Aβ42 ELISA was performed according to the manufacturer’s instructions. The assay was conducted in a microplate coated with anti-human Aβ35-40 mouse IgG (1A10) or anti-human Aβ38-42 mouse IgG (44A3), respectively. The microplate was added with 100 μL conditioned media, incubated overnight at 4 °C, and then washed with washing buffer. Horseradish peroxidase-conjugated anti-human Aβ11-28 mouse IgG (82E1) was added into each well, incubated at 4 °C for 1 h, and washed with washing buffer. 3,3′,5,5′-Tetramethylbenzidine as a chromogenic substrate was added to each well and incubated for 30 min. The reaction was stopped by the addition of 100 μL stop solution, and the absorbance at 450 nm was measured using a model 680 microplate reader (Bio-Rad, Hercules, CA).
# T2 sequence (O42275 24-633): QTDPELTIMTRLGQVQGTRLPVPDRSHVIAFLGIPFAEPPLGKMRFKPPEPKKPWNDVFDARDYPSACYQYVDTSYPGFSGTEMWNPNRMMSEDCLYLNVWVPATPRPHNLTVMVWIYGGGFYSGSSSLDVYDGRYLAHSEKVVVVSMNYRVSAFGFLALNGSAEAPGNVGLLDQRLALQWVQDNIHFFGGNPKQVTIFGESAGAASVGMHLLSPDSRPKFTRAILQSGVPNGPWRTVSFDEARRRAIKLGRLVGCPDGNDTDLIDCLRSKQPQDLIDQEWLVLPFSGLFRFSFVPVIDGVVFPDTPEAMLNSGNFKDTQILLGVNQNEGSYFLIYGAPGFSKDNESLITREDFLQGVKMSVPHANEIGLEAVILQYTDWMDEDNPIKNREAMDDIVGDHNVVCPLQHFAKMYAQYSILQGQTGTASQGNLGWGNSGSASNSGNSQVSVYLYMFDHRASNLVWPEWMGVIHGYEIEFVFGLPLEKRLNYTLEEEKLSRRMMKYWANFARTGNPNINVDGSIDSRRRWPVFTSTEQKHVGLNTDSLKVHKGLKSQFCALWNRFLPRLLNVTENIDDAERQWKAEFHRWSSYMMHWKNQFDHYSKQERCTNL
# T1 sequence (P81908 whole entry): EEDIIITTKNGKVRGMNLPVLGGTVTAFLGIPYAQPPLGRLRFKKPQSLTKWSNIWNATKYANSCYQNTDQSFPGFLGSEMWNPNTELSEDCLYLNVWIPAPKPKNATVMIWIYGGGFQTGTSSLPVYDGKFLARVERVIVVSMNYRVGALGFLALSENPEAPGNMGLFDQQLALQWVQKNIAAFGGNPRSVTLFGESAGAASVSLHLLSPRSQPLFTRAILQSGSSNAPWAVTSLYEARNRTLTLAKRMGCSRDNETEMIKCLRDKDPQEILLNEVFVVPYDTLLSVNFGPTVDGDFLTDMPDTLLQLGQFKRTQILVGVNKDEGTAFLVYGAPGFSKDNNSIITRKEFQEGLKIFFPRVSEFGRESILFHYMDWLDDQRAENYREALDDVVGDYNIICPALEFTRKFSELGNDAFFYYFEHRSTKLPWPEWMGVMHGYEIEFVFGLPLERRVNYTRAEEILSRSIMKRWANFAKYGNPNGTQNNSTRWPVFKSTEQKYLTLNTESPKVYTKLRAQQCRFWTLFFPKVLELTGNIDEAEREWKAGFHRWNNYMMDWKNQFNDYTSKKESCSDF
Compound,IC50 [1],BChE-inhibitory activity fold lower than berberine ([1]; ratio of IC50),Ki [2],Inhibition type AChE [2],"LD50 Based on MTT Assay, C6 [3]","LD50, cell lines tested [4]","Secretion of Aβ peptides, effect ([5]; 500 μM)","Secreted Aβ40 peptides, effect ([5]; 500 µM, 24 h)","Reduction of Aβ40 peptide secreted into media ([5]; 500 μM, 24 h, P < 0.01)","IC50 ([1]; mean ± S.D. of three experiments, read-out: IC50 BChE)","Ki ([2]; determined by Dixon plot, read-out: Ki AChE)","Secreted Aβ42 peptide, effect ([5]; 500 µM, 24 h, P < 0.05)"
"Cc1cc2c(c(C)c1CCO)C(=O)[C@H](C)C2 [(2R)-Pterosin B, (2R)-pterosin B]",48.1 ± 0.59 µM,~15 fold,12.1 µM,Mixed-type,">5,000 µM",above 5 mM,significantly decreased,significantly decreased,up to 50%,,,
"Cc1cc2c(c(C)c1CCOC1OC(CO)C(O)C(O)C1O)C(=O)C(C)C2O [(2R,3R)-Pteroside C, (2R,3R)-pteroside C]",,,,Mixed-type,">5,000 µM",above 5 mM,significantly decreased,,,5.29 ± 0.82 µM,8.13 µM,significantly decreased
